The data set can be described thus: In situ brain perfusion, single time-point method. The following applies: for Kin relative to values reported for drugs that do not substantially penetrate the CNS: 50 μM. Here is the method:
Animals used in this study were Sprague-Dawley rats (approximate weight 250-300 grams), obtained from Hilltop Lab Animals, Scottdale, Pa. Upon arrival, the rats were assigned randomly to treatment groups and acclimated for at least 24 hours. The animals were housed two per cage and identified by cage labels. A single room was used for this study. The animals were supplied with water and a commercial rodent diet ad libitum. On the day of the experiment, each rat was anesthetized intraperitoneally with Ketamine HCl/Xylazine HCl solution prior to being implanted with a cannula into the left carotid artery. Branch arteries were […], and the cardiac supply was cut off prior to brain perfusion.
Perfusion was performed using the single time-point method. […] Following 30 seconds of perfusion, the pump was stopped, and the brain was removed from the skull immediately. The brain was cut longitudinally in […]. Each left cerebral hemisphere was placed into a chilled tube, frozen on dry ice, and stored frozen at −60° C. to −80° C. until analyzed. […] Test articles were perfused at concentrations of 50 μM. The outline of the experimental treatments and the target and measured concentrations of the test articles and control compounds in the perfusate are presented in Table 3.
The left brain hemisphere from each rat was thawed and weighed. Methanol (20% aqueous) was added to each left brain hemisphere at approximately 4 mL per 1 g of brain tissue, and the mixture was homogenized using sonication with a VirSonic Ultrasonic Cell Disruptor 100 (VirTis). The test articles and two reference compounds were analyzed in the resulting homogenate by using LC/MS/MS.
The unidirectional brain transfer constants Kin (mL/g/min) were determined for the test articles and the high permeability reference, antipyrine, using the following equation for the single-point perfusion assay: […]
where: Cbr/Cpf is the apparent brain distribution volume (mL/g of brain tissue); Cbr is the concentration of drug in the brain tissue (pmol of drug per g of brain tissue); Cpf is the drug concentration in the perfusion fluid (pmol/mL of perfusate); and t is the net perfusion time (minutes).
Graphic representation and statistical analyses of the data were performed using GraphPad Prism software.

[1] abbreviates: Sprague-Dawley, rat, in vivo, 30 s.
Where [2] appears, read: Table 4 Treatment 2: Compound B perfused with references + MAO inhibitor Pargyline, Rat 1.
[3] abbreviates: Table 4 Treatment 2: Compound B perfused with references + MAO inhibitor Pargyline, Rat 2.
Where [4] appears, read: Table 4 Treatment 2: Compound B perfused with references + MAO inhibitor Pargyline, Rat 3.
Setting [5] is: Table 5 Treatment 1: Compound A perfused with references, Average ± STD.
Setting [6] is: Table 5 Treatment 1: Compound A perfused with references, Rat 1.
Where [7] appears, read: Table 5 Treatment 1: Compound A perfused with references, Rat 2.
Where [8] appears, read: Table 5 Treatment 1: Compound A perfused with references, Rat 3.
The mark [9] stands for this setting: Table 5 Treatment 2: Compound A perfused with references + CYP2D6 inhibitor Quinidine, Average ± STD.
The mark [10] stands for this setting: Table 5 Treatment 2: Compound A perfused with references + CYP2D6 inhibitor Quinidine, Rat 1.
Where [11] appears, read: Table 5 Treatment 2: Compound A perfused with references + CYP2D6 inhibitor Quinidine, Rat 2.
The mark [12] stands for this setting: Table 5 Treatment 2: Compound A perfused with references + CYP2D6 inhibitor Quinidine, Rat 3.

SMILES strings stand for the structures. Entries after “also recorded” stand apart in the source; their conditions may differ.

Regarding `CNCC/C=C/c1cccnc1` [Compound B, N-methyl-(4-pyridin-3-yl-but-3-enyl)-amine], the “Brain concentration and Kin in the presence of the MAO inhibitor Pargyline compared to alone” value runs as follows: under setting [1], “^Significantly higher than the corresponding values of Compound B in the absence of enzymatic inhibitor (p < 0.05, two-tailed t-test)”; (rat, in vivo) “significantly increased”. Moreover, under setting [1], the “Kin relative to values reported for drugs that do not substantially penetrate the CNS” value is “more than 100 times”. Also, the “Brain Concentration (corrected for drug retained in vascular volume)” value (Table 4 Treatment 1: Compound B perfused with references, Average ± STD) was 2681.0 ± 513.0 pmol/g; the “Brain Concentration (corrected for drug retained in vascular volume)” value (Table 4 Treatment 1: Compound B perfused with references, Rat 1) amounted to 2725.9 pmol/g; the “Brain Concentration (corrected for drug retained in vascular volume)” value (Table 4 Treatment 1: Compound B perfused with references, Rat 2) is reported as 3170.1 pmol/g; the “Brain Concentration (corrected for drug retained in vascular volume)” value (Table 4 Treatment 1: Compound B perfused with references, Rat 3) is 2147.0 pmol/g; the “Brain Concentration (corrected for drug retained in vascular volume)” value (Table 4 Treatment 2: Compound B perfused with references + MAO inhibitor Pargyline, Average ± STD) is 3652.8^ ± 293.1 pmol/g; the “Brain Concentration (corrected for drug retained in vascular volume)” value under setting [2] is 3358.2 pmol/g. Also, the “Brain Concentration (corrected for drug retained in vascular volume)” value by setting is: under setting [3], 3655.8 pmol/g; under setting [4], 3944.4 pmol/g. For the same molecule, the Kin under setting [2] is 0.110 mL/g/min, the Kin under setting [3] was found to be 0.120 mL/g/min and the Kin under setting [4] was found to be 0.129 mL/g/min. Besides, the “Potential to penetrate the brain” value (rat, in vivo) is reported as “good potential”.

For the molecule `CN[C@@H](C)C/C=C/c1cncc(OC)c1` [Compound A, (2S)-(4E)-N-methyl-5-(3-(5-methoxypyridin)yl)-4-penten-2-amine], the “Brain penetration (brain concentration, Kin) in the absence or presence of the CYP2D6 inhibitor Quinidine” value (N=3) was “no significant difference; also recorded: did not affect”. Besides, under setting [1], the “Kin relative to values reported for drugs that do not substantially penetrate the CNS” value is on record as “more than 100 times”. Also, the “Brain Concentration (corrected for drug retained in vascular volume)” value is listed as 5504.5 ± 961.7 pmol/g under setting [5]; 6558.8 pmol/g under setting [6]; 5279.1 pmol/g under setting [7]; 4675.5 pmol/g under setting [8]; 5803.0 ± 278.8 pmol/g under setting [9]; 5574.4 pmol/g under setting [10]. In addition, the “Brain Concentration (corrected for drug retained in vascular volume)” value under setting [11] amounted to 6113.5 pmol/g and the “Brain Concentration (corrected for drug retained in vascular volume)” value under setting [12] worked out at 5721.1 pmol/g. The Kin is, setting by setting: under setting [5], 0.198+ ± 0.035 mL/g/min; under setting [6], 0.236 mL/g/min; under setting [7], 0.190 mL/g/min; under setting [8], 0.168 mL/g/min; under setting [9], 0.212 ± 0.010 mL/g/min; under setting [10], 0.203 mL/g/min. Also, the Kin turned out to be 0.223 mL/g/min under setting [11] and 0.209 mL/g/min under setting [12]. Under “rat, in vivo”, the “Average Kin of Compound A (absence of Quinidine) compared with Compound B (absence of Pargyline)” value was “higher”. Also, the “Potential to penetrate the brain” value (rat, in vivo) is “good potential”.

These data come from US20100028447A1, “Intranasal, Buccal, And Sublingual Administration Of Metanicotine Analogs” (TARGACEPT, INC., priority 2007, published 2010).
